Numbers after ± are expanded uncertainties.
Conditions: Liquid, Closed cell (Static) method

## FCC(F)(F)F [1,1,1,2-tetrafluoroethane]
263.15 K
  vapor or sublimation pressure: 202.6 ± 2.9 kPa
268.15 K
  vapor or sublimation pressure: 245.5 ± 3.5 kPa
273.15 K
  vapor or sublimation pressure: 294.12 ± 4.2 kPa
283.15 K
  vapor or sublimation pressure: 416.6 ± 5.9 kPa

## CCF [fluoroethane]
253.15 K
  vapor or sublimation pressure: 216.2 ± 2.2 kPa
258.15 K
  vapor or sublimation pressure: 261.4 ± 2.6 kPa
263.15 K
  vapor or sublimation pressure: 311.9 ± 3.2 kPa
265.65 K
  vapor or sublimation pressure: 342.3 ± 3.5 kPa
268.15 K
  vapor or sublimation pressure: 372.2 ± 3.8 kPa
270.65 K
  vapor or sublimation pressure: 405.3 ± 4.1 kPa
273.15 K
  vapor or sublimation pressure: 438.1 ± 4.4 kPa
275.15 K
  vapor or sublimation pressure: 468.9 ± 4.7 kPa
278.15 K
  vapor or sublimation pressure: 517.1 ± 5.2 kPa
281.15 K
  vapor or sublimation pressure: 567.1 ± 5.7 kPa
283.15 K
  vapor or sublimation pressure: 602.9 ± 6.1 kPa
285.65 K
  vapor or sublimation pressure: 650.2 ± 6.6 kPa
288.15 K
  vapor or sublimation pressure: 699 ± 7.1 kPa
290.65 K
  vapor or sublimation pressure: 752.4 ± 7.6 kPa
293.15 K
  vapor or sublimation pressure: 808.2 ± 8.2 kPa
295.65 K
  vapor or sublimation pressure: 866 ± 8.8 kPa
298.15 K
  vapor or sublimation pressure: 924.2 ± 9.3 kPa
300.65 K
  vapor or sublimation pressure: 990.3 ± 10 kPa
303.15 K
  vapor or sublimation pressure: 1051.4 ± 11 kPa
305.65 K
  vapor or sublimation pressure: 1121.5 ± 11 kPa
308.15 K
  vapor or sublimation pressure: 1192.8 ± 12 kPa
310.65 K
  vapor or sublimation pressure: 1269.5 ± 13 kPa
313.15 K
  vapor or sublimation pressure: 1348.6 ± 14 kPa
315.65 K
  vapor or sublimation pressure: 1428.6 ± 14 kPa
318.5 K
  vapor or sublimation pressure: 1516.5 ± 15 kPa
320.65 K
  vapor or sublimation pressure: 1607.1 ± 16 kPa
323.15 K
  vapor or sublimation pressure: 1703.9 ± 17 kPa

Source: the NIST ThermoML archive (doi:10.1016/j.fluid.2006.04.014)
